The values that follow come from PMC9256669, “Monomethyl auristatin antibody and peptide drug conjugates for trimodal cancer chemo-radio-immunotherapy” (Nature Communications, 2022).

“And” between values parts separate entries of the source, which are not always exact repeats. Equal entries are not always repeated. Where two headings read alike, the source gives them in different places. Non-standard residues stand in square brackets, D forms with d. Residues, ends and D or L forms follow the SMILES beside them. *: point of attachment. Dolaproine = CO[C@@H]([C@@H]1CCCN1)[C@@H](C)C(=O)O; Dil = CC[C@H](C)[C@H](NC)[C@@H](CC(=O)O)OC; X1 = C[C@@H](N*)[C@@H](O)c1ccccc1; NMeV = CN[C@H](C(=O)O)C(C)C

One data set has as its system LL/2 cells. In words: Clonogenic survival with MMAE and 2 Gy (SF2). Format: cell-based, murine. More on the design: key: fraction surviving 2 Gy relative to non-irradiated cells. Here is the method: Cells were treated with MMAE for 24 h and then irradiated with 2 Gy. […] Following IR, cells were counted, re-plated at varying cell numbers in drug free media. 10–14 days after initial seeding formed colonies were methanol fixed, stained with crystal violet, and counted. Surviving fraction at 2 Gy (SF2) was calculated as the fraction of cells surviving 2 Gy compared to non-irradiated cells. […]

In a further data set the test system is MOC1. In words: Cytotoxicity, Alamar Blue assay. The class given is cell-based, murine. The settings on record: for sensitivity in cell culture, Alamar Blue assay: MOC1 and MOC2 cells, cell viability at 72 hr of drug exposure, CDX3379 at nM dosing. How it is done:
(§1) Murine colorectal (MC38 (ENH204-FP)) cancer cell lines were obtained from Kerafast. Murine head and neck MOC1 and MOC2 were generously provided by Dr. R. Uppaluri. CAL27 PIK3CA H1047R expressing cells and 4MOSC1 cells were generated in Dr. Gutkind’s laboratory and previously characterized[42],[55]. […] MC38 cells were cultured in DMEM supplemented with 10% FBS, 1 mM sodium pyruvate (Gibco), 1% non-essential amino acids (Gibco), and 10 mM HEPES (Gibco). MOC1 and MOC2 cells were cultured in IMDM (Lonza)/F-12K nutrient mixture at a 2:1 mixture with 5% FBS, 5 ng/ml EGF (EMD Millipore), 400 ng/ml hydrocortisone (Sigma), and […] insulin (Sigma). On receipt, each cell line was expanded, cryopreserved as low passage stocks, and routinely tested for mycoplasma. Cisplatin (Enzo Biosciences), paclitaxel (Sigma), and MMAE (Concortis) were reconstituted in DMSO. […] Clinical grade cetuximab (Erbitux, Lilly Medical) was obtained from UCSD Moores Cancer Center Pharmacy.
(§2) Cells were plated in 96-well plates and exposed to a drug concentration range for 72 h. Alamar Blue was added to the cells and allowed to incubate for 2–4 h at 37 °C. Plates were analyzed using a plate reader with fluorescence measured at 560 nm. Fractional survival was normalized to untreated control cell fluorescent values. Drug IC50 was calculated using Prism software (GraphPad, La Jolla, CA). Cell viability, cytotoxicity and apoptosis were also measured by ApoTox-Glo Triplex Assay (Promega).
(§3) measured by Alamar Blue assay. For Alamar Blue assay cytotoxicity, we measured cell viability at 72 hr of […]
(Resazurin is reduced to fluorescent resorufin, in cell work by metabolically active cells.)

A further data set has as its system MOC2. In words: Cytotoxicity, Alamar Blue assay. The conditions noted are these: MOC2, 72 h drug exposure, one value per biological replicate, read-out: IC50 values. The class given is cell-based, murine. Here is the method: as §1, §2, §3
The subject of data set [1] is MOC1, MOC2 and LL/2 tumors. The settings on record: immune-competent mice, not in HER3 negative LL/2 tumors. Here is the method:
(§4) All animal work was done in compliance with the University of California San Diego Institutional Animal Use and Care Committee under protocol #S15290. Mice were housed in individually ventilated and micro-isolator cages supplied with acidified water and fed 5053 irradiated PicoLab Rodent Diet 20. Temperature for laboratory mice in housing was 18–23 °C with humidity 40–60%. Housing room is maintained on a 12-h light/dark cycle. […] For imaging, mice were anesthetized (1:1 mixture of 100 mg/ml of ketamine and 5 mg/ml of midazolam). Animals were imaged using a Maestro Small Animal Imager (CRI) with excitation filter of 607/36 and 633 nm long pass emission filter with dichroic filter tuned to 670 nm for Cy5 images only. Imaging was done both with skin on and after skin removal to decrease autofluorescence and scattering. Exposure time for Cy5 signal capture for tumor models was as follows: CAL27 for 800 ms, MOC1 for 200 ms and MOC2 for 1500 ms.
(§5) Source data are provided in Source Data file.

Data set [2] relates to CAL27 and Detroit 562 tumor xenografts. The settings on record: immune-deficient mice with HER3 expressing human tumor xenografts. Here is the method:
as §4, §5
(Xenograft models place foreign cells or tissue in a host animal.)

Data set [3] deals with B16 tumors. In words: Subcutaneous tumor therapy, ADC monotherapy, mouse survival. Format: in vivo, C57BL/6 mice.
Procedure: (§6) MOC1, B16, LL/2, and MC38 tumor cells were injected subcutaneously into the hindlimbs of 6-week-old female C57BL/6 albino mice in 100 µl of 1:1 Matrigel (BD) and PBS solution. Fractionated IR was delivered focally to the tumor-bearing hindlimbs (3 Gy to MC38 tumors and 5 Gy to LL/2 and B16 tumors) as indicated in figure legends using a PXI X-RAD 225 XL irradiator at maximal dose rate of 3 Gy/min with a beam-conditioning aluminum filter (Precision X-ray Irradiation). For RAG1 KO studies, 6-week-old female Rag1^tm1Mom mice were injected subcutaneously with tumor cells in their hindlimbs (Jackson Labs). For CD8 depletion studies, mice were i.p. injected with anti-CD8 (BioXCell #BE0117) at 10 mg/kg on days −6, −5 and −4 tumor cell implant and then weekly starting on day after tumor cells were injected or control antibody. […] Tumor volumes were measured and calculated using the formula as ½ * length * width^2. Mice were sacrificed when tumor volume reached >1500 mm^3, maximal tumor volume approved on our protocol for subcutaneous tumors.
Data set [4] relates to B16 tumors. Put plainly: Subcutaneous tumor therapy with CD8 T cell depletion. The class given is in vivo, C57BL/6 mice. The settings on record: MMAE conjugate + IR, anti-CD8 antibody 10 mg/kg vs control.
Procedure: as §6
The subject of data set [5] is B16 tumors. Format: in vivo, C57BL/6 mice. How it is done:
At harvest, tumors were isolated, minced, and re-suspended in FBS-free DMEM media supplemented with components of MACs tumor dissociation kit. Tissues were incubated for 15 min at 37 °C and mechanically digested using the gentle MACs Octo dissociator. Tissue suspensions were washed with fresh media and passed through a 100-µm strainer. Samples were split in half for immediate staining or stimulated with the Biolegend Cell Activation Cocktail (with Brefeldin A) for 3 h. Samples were washed with PBS and immediately processed for live/dead cell discrimination using BD LIVE/DEAD™ Fixable Blue Dead Cell Stain Kit. Cells were washed and stained for surface markers for 30 min at 4 °C. Intracellular staining was performed using the eBioscience FOXP3/Transcription Factor Buffer Set from Invitrogen and stained with intracellular antibodies. […] All antibodies were validated by the supplier. All flow cytometry data acquisition was done using BD LSRFortessa and analyzed using FlowJo software. Immune cells were identified by the following characteristics: cytotoxic T cells (CD45+Thy1.2+CD8+), helper T cells (CD45+Thy1.2+CD4+), NK cells (CD45+Thy1.2−NK1.1+).
FSC-A FSC-H SCC-H Live Dead-Blue
Representative flow cytometry plots to gate immune cells quantitated in Fig. 4a, b, 4d &
Supplementary Fig. 10b, c. b) Quantification of tumor immune cell identified by flow cytometry on
Tumors harvested on day 19 and immune cells characterized by flow cytometry. c) Tumor
Mice implanted with tumor
as §5

For data set [6], the system named is orthotopic oral 4MOSC1 tumors. Put plainly: Trimodal therapy: ACPP-MMAE, IR and anti-PD-1 antibody. Format: in vivo, C57BL/6 mice. The conditions noted are these: Figure 5c; individual mice, one line per mouse. The text has this: Orthotopic tongue xenograft tumors were established in 6-week-old NOD SCID mice by injecting 150,000 CAL27 parental (WT) or PIK3CA H1047R-expressing cells. […] On the last day of tumor xenograft measurements, mice were euthanized, tongues resected, imaged, and fixed. […] IR was delivered as 2 parallel opposed fields.

The subject of a further data set is MC38 tumors. The settings on record: status at the day printed in the same line, one line per mouse.

Procedure for MC38 tumors: as §6

What is called IC50 is the point on the concentration scale where inhibition reaches its midpoint. For the compound `CC[C@H](C)[C@@H]([C@@H](CC(=O)N1CCC[C@H]1[C@H](OC)[C@@H](C)C(=O)N[C@H](C)[C@@H](O)c1ccccc1)OC)N(C)C(=O)[C@@H](NC(=O)[C@@H](NC)C(C)C)C(C)C` [MMAE, monomethyl auristatin E] (H-[NMeV]V[Dil][Dolaproine]-X1), the SF2 with LL/2 cells (MMAE 1 nM with 2 Gy, replicate 1) is on record as 0.48; with LL/2 cells (MMAE 1 nM with 2 Gy, replicate 2), 0.48; with LL/2 cells (MMAE 1 nM with 2 Gy, replicate 3), 0.66; in the data set with LL/2 cells (MMAE 1 nM with 2 Gy, replicate 4), 0.44; with LL/2 cells (MMAE 1 nM with 2 Gy, replicate 5) it was 0.62; in the data set on LL/2 cells (MMAE 1 nM with 2 Gy, replicate 6), 0.64. Also, the SF2 was 0.46 in the data set on LL/2 cells (MMAE 2 nM with 2 Gy, replicate 1); 0.53 with LL/2 cells (MMAE 2 nM with 2 Gy, replicate 2); 0.53 in the data set on LL/2 cells (MMAE 2 nM with 2 Gy, replicate 3); 0.41 in the data set with LL/2 cells (MMAE 2 nM with 2 Gy, replicate 4); 0.43 in the data set with LL/2 cells (MMAE 2 nM with 2 Gy, replicate 5); 0.43 in the data set with LL/2 cells (MMAE 2 nM with 2 Gy, replicate 6). The SF2 in the data set with LL/2 cells (MMAE 3 nM with 2 Gy, replicate 1) is 0.29; with LL/2 cells (MMAE 3 nM with 2 Gy, replicate 2), 0.45; in the data set with LL/2 cells (MMAE 3 nM with 2 Gy, replicate 3), 0.38; in the data set on LL/2 cells (MMAE 3 nM with 2 Gy, replicate 4) it was 0.45; with LL/2 cells (MMAE 3 nM with 2 Gy, replicate 5), 0.26; in the data set with LL/2 cells (MMAE 3 nM with 2 Gy, replicate 6), 0.38. For the same compound, the IC50 in the data set with MOC1 (MOC1, 72 h drug exposure, Alamar Blue, one value per biological replicate, read-out: IC50 values) was 7.93 nM and 8.71 nM and 8.36 nM and 9.59 nM; with MOC2, 9.29 nM and 11.1 nM. Also, the “sensitivity in cell culture, Alamar Blue assay” value with MOC1 was “sensitive”.

In the case of “CDX3379-MMAE: anti-HER3 antibody CDX3379 with 4 MMAE per antibody via MC-VC-PABC linker, labeled with Cy5”, the “localization of i.v. injected Cy5-labeled ADC” value in data set [1] is “localized to HER3 expressing murine syngeneic tumors”; in [2], “localized to tumor bearing hindlimbs”. In addition, the “anti-tumor activity as measured by mouse survival” value with B16 tumors [3] is “modest anti-tumor activity”. Further, the “sensitivity in cell culture, Alamar Blue assay” value in the data set on MOC1 is on record as “sensitive”. In addition, the “effect of CD8 T cell depletion on tumor control” value with B16 tumors [4] is “significantly larger”. The “tumor CD8 T cell infiltration, with IR” value in the data set on B16 tumors [5] (B16 tumors, flow cytometry, drug + IR) is reported as “significantly increased CD8 tumor cell infiltration”. The “Flow cytometry (Figure 4b)” value with B16 tumors [5] (without IR, individual tumors) is 3.89 and 16.51 and 9.62.

“cyclo(RGD)fc-MC-HN-peg8-e9-oPLGC(Me)AG-r9-c-(MC-VC-PABC-MMAE)-CONH2 [ACPP-MMAE]”: in the data set on B16 tumors [4], the “effect of CD8 T cell depletion on tumor control” value is reported as “abrogated durable tumor control”. In addition, the “Mouse survival: status at the day given (Mouse dead = 1, Mouse alive = 0)” value in data set [6] turned out to be 1. The “Mouse survival, status” value in the data set on MC38 tumors (ACPP-MMAE + IR + αPD1) is 1 and 0. For the same compound, the “Mouse survival, status” value in the data set with MC38 tumors (ACPP-MMAE + IR) is 1. Besides, in the data set with B16 tumors [5] (mouse, in vivo), the “Flow cytometry, CD4+” value was 0.17 and 0.11; the “Flow cytometry, CD45+” value was 9.46 and 7.71; the “Flow cytometry, CD45 negative” value is 89.90 and 91.80; the “Flow cytometry, NK cells” value was 0.17 and 0.11.
